This is an account of results in US8232289B2, “Spiropiperidine compounds as ORL-1 receptor antagonists” (Eli Lilly and Company, priority 2009, dated 2012).

Like-named read-outs stand apart in the source and are kept apart here. A value given as a limit tells only on which side of the number the result lay.

Assay [1] concerns the target T1, nociceptin/ORL1 receptors (Rattus norvegicus, UniProt P35370).
T1 construct: from tissue; host or cells: rat hypothalamus (in vivo)
The assay can be described thus: In vivo receptor occupancy (LC/MS/MS, RO Tracer) in hypothalamus. Also on record: species or system rats. Conditions: for receptor occupancy at 3 mg/kg: rat hypothalamus, 3 mg/kg oral dose, after 6 hr. The protocol: Receptor occupancy (RO) using LC/MS/MS has been established as a way to measure central target engagement of putative ORL-1 antagonist in vivo. Nociceptin/ORL1 receptor occupancy (RO) is measured in the hypothalamus, a structure which contains a high density of nociceptin/ORL1 binding sites that are inside the blood brain barrier, using a novel proprietary nociceptin/ORL1 antagonist RO tracer, 2-[(2-fluorophenyl)methyl]-3-(2-fluorospiro[4,5-dihydrothieno[2,3-c]pyran-7,4′-piperidine]-1′-yl)-N,N-dimethyl-propanamide, (RO Tracer). These measurements are made without the need for a radiolabeled tracer as previously published for other receptors with modifications (Chemet E, Martin L J, Li D, Need A B, Barth V N, Rash K S, Phebus L A. Use of LC/MS to assess brain tracer distribution in preclinical, in vivo receptor occupancy studies: dopamine D2, serotonin 2A and NK-1 receptors as examples. Life Sci. 78(4):340-6, 2005.). A positive correlation has been established between central nociceptin/ORL1 RO and efficacy in the modulation of the feeding behavior and forced swim test in rodents. Central nociceptin/ORL1 RO is measured at 6 or 24 hours following oral administration of the test compound to rats. Male Sprague-Dawley rats (Harlan Sprague-Dawley, Indianapolis, Ind.) are treated orally with a test compound, or vehicle (20% Captisol, 25 mM phosphate buffer, pH 2.0). At 6 or 24 hours following administration of test compound/vehicle, all animals are administered an intravenous, 3 ng/kg dose of RO Tracer. It is at the time of RO Tracer administration that RO is considered to be measured. Forty minutes after RO Tracer administration, rats are sacrificed by cervical dislocation and the hypothalamus is removed. The level of RO Tracer is measured in each tissue sample.
The centrally active literature reference standard (−)-cis-1-methyl-7-[[4-(2,6-dichlorophenyl)piperidin-1-yl]methyl]-6,7,8,9-tetrahydro-5H-benzocyclohepten-5-ol (SB612111, see Magdalena and Heisler, supra), a potent nociceptin/ORL1 receptor selective antagonist, is used as a positive control to establish the RO Tracer level associated with 100% nociceptin/ORL1 RO. […]
Hypothalamic samples are homogenized in 4 volumes (w/v) of acetonitrile containing 0.1% formic acid and centrifuged at 14,000 RPM for 16 min. […] Detection of RO Tracer is accomplished by monitoring the precursor to product ion transition with a mass to charge ratio (m/z) of 435 to 239, with levels quantified by comparison to standards prepared in brain tissue homogenates. Zero percent RO is calculated as the level of RO Tracer in the hypothalamus of vehicle-pretreated animals, which represents the sum of nonspecific and specific binding (all receptors available to the tracer). […]

The next assay deals with T2, human ORL1 receptors (Homo sapiens, UniProt P41146).
T2 construct: expressed in transfected cells; host or cells: CHO cells (membranes)
The assay is described as follows: [3H]-OFQ/nociceptin receptor binding assay. The method, then:
Radioligand binding assays are commonly used to determine the affinity (Ki) or potency of a compound to bind to a particular receptor or target protein. A filtration-based [3H]-OFQ/nociceptin receptor binding assay is developed based on previous assay formats (Ardati A, Henningsen R A, Higelin J, Reinscheid R K, Civelli O, Monsma F J Jr. Mol. Pharmacol. 1997 May; 51(5):816-24.) with minor modifications. [3H]-OFQ/nociceptin binding assays are carried out in deep-well 96-well plates. [^3H]OFQ (final assay concentration 0.2 nM) competition studies are carried out with 5-10 μg of membrane protein (isolated from Chinese hamster ovary cells (CHO cells) expressing cloned human ORL1 receptors) in a final assay volume of 0.5 mL of buffer containing 20 mM HEPES, pH 7.4, 5 mM MgCl2, 1 mM EGTA, 100 mM NaCl, 0.1% bovine serum albumin. Samples are incubated for 60 min. at room temperature, which is found to be optimal for competition assays. The assays are terminated by filtration through glass fiber filters (Wallac filtermat A) [pretreated with 0.3% polyethylenimine (Sigma) for 1 hr] on a Tometc cell harvester, and the filters are washed three times with 5 mL of ice-cold 50 mM Tris.HCl, pH 7.4. Filtermats are then dried and imbedded with Meltilex scintillant A and the radioactivity counted in a Wallac Microbeta scintillation counter. Specific binding is determined by displacement with 100 nM unlabeled nociceptin. Curves are plotted as the percent of specific binding and IC50 values are determined using a sigmoidal dose response curve with variable slope. Ki values are calculated from the IC50 by the equation of Cheng and Prusoff (Cheng, Y. C., and Prusoff, W. H., Biochem. Pharmacol. 22, 3099-3108 (1973)) where Ki=IC50×(1+D×Kd^−1)^−1.

In another assay the target is 5-HT1D (Homo sapiens, UniProt P28221). The assay is described as follows: Radioligand binding selectivity, 5-HT1D. From the text: (§1) Similarly, Ki for the mu, kappa and delta opioids, serotonin, dopamine, adrenergic, mucarinic, and histamine receptors, as well as binding to the norepinephrine transporter, sodium channel, chloride channel, and calcium channel may be determined using membranes expressing the desired receptor/transporter/channels and appropriate corresponding radioligand competitor molecules.

Another assay concerns the target D1 Dopamine (Homo sapiens, UniProt P21728). The assay can be described thus: Radioligand binding selectivity, D1 Dopamine.
From the text: as §1

For a further assay, the target named is 5-HT7 (Homo sapiens, UniProt P34969). The assay can be described thus: Radioligand binding selectivity, 5-HT7.
From the text: as §1

Another assay addresses 5-HT2A (Homo sapiens, UniProt P28223). The assay is described as follows: Radioligand binding selectivity, 5-HT2A.
From the text: as §1

Another assay has as its target Adenosine A3 (Homo sapiens, UniProt P0DMS8). The assay is described as follows: Radioligand binding selectivity, Adenosine A3.
For the next assay, the target named is D2 Dopamine (Homo sapiens, UniProt P14416). The assay can be described thus: Radioligand binding selectivity, D2 Dopamine.
From the text: as §1

In the next assay the target is Muscarinic M3 (Homo sapiens, UniProt P20309). The assay can be described thus: Radioligand binding selectivity, Muscarinic M3.
From the text: as §1

Another assay deals with Ca+2 channel (DHP site). The assay is described as follows: Radioligand binding selectivity, Ca+2 channel (DHP site).
From the text: as §1

T1 sequence (P35370 whole entry): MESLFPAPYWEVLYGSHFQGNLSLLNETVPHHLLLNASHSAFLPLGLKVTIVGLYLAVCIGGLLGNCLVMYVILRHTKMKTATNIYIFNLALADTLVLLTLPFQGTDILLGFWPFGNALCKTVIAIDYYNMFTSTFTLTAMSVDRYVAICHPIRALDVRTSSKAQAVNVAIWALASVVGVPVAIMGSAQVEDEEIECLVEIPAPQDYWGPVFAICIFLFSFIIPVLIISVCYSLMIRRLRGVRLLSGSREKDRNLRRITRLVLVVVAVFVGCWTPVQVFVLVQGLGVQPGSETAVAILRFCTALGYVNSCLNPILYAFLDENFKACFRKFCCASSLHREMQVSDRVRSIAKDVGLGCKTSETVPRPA
T2 sequence (P41146 whole entry): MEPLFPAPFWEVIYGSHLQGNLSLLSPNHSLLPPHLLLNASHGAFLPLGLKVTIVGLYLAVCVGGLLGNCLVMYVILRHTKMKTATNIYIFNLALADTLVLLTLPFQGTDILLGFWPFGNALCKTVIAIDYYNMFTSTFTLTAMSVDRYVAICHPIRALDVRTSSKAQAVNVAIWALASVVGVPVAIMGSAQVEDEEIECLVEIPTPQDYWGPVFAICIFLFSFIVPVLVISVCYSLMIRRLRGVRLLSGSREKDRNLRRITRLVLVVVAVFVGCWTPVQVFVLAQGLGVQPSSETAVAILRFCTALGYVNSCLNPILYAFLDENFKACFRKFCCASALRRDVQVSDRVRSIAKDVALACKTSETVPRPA
5-HT2A, sequence (P28223 whole entry, species assumed): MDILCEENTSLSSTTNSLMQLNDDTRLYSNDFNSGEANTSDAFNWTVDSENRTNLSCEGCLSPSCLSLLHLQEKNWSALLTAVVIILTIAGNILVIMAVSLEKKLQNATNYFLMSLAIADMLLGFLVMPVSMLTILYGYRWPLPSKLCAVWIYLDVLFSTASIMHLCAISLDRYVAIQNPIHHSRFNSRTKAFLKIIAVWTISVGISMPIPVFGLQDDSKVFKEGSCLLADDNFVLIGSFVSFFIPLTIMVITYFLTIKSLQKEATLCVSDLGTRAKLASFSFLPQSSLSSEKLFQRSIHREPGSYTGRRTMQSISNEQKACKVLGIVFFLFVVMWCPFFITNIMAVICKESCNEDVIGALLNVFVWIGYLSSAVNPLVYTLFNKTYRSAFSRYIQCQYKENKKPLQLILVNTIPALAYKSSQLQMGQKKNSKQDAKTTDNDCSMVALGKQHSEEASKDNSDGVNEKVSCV
5-HT1D, sequence (P28221 whole entry, species assumed): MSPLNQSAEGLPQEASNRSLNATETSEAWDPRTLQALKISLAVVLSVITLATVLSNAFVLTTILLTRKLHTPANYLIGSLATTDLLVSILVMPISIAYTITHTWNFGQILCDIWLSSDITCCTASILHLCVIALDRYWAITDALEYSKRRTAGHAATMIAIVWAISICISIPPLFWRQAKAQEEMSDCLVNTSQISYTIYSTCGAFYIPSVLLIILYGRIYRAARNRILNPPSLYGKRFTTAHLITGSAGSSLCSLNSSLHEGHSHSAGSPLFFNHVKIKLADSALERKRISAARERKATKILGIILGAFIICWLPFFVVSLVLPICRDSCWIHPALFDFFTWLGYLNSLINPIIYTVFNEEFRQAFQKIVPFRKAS
5-HT7, sequence (P34969 whole entry, species assumed): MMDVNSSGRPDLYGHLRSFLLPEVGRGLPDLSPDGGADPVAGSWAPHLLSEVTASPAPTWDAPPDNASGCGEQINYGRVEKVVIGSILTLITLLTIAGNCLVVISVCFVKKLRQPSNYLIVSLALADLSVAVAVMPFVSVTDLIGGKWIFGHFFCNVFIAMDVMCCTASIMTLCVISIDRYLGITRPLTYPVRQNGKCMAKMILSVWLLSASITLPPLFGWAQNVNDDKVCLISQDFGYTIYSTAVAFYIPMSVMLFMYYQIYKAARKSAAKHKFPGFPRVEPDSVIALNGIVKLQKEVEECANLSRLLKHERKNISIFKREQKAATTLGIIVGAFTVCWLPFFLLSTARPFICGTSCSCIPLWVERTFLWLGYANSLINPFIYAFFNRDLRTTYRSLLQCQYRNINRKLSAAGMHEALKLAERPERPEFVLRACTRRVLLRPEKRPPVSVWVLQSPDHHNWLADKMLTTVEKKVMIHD
D2 Dopamine, sequence (P14416 whole entry): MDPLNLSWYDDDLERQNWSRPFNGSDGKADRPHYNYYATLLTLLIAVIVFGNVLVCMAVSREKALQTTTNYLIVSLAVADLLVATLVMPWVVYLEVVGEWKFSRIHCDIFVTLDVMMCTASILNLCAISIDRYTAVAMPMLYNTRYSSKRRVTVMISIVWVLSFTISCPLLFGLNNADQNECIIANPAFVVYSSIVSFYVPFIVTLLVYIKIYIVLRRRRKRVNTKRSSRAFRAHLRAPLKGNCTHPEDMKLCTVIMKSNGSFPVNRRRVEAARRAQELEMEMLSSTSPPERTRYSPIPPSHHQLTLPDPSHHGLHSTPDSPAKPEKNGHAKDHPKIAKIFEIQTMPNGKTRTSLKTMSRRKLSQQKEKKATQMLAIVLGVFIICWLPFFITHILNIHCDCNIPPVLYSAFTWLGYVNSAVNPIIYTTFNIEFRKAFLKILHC
D1 Dopamine, sequence (P21728 whole entry): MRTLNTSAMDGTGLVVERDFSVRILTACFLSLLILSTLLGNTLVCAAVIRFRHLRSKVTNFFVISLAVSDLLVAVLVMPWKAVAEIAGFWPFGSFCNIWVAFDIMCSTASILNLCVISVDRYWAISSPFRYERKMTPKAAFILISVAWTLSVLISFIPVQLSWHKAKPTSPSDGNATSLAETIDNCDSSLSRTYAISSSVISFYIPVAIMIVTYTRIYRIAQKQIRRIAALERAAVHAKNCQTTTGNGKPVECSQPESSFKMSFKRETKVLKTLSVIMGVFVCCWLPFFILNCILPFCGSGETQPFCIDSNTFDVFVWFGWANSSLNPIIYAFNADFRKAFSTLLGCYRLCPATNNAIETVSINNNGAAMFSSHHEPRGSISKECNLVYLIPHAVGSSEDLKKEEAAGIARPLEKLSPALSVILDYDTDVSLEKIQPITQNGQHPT
Muscarinic M3, sequence (P20309 whole entry): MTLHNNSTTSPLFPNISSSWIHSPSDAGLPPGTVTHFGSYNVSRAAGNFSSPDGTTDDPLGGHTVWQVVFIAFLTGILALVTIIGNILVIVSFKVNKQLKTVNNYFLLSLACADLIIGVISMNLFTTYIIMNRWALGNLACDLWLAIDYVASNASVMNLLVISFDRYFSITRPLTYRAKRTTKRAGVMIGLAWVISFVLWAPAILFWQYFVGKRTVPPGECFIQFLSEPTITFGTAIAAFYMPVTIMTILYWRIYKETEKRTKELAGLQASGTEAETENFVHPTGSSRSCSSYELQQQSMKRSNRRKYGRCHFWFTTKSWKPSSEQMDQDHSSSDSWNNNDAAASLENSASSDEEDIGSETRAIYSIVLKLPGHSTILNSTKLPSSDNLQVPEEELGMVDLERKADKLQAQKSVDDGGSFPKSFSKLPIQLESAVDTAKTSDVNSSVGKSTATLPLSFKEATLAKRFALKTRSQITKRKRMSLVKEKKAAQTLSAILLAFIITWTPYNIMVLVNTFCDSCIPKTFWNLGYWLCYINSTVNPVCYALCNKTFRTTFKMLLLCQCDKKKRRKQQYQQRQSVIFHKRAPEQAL
Adenosine A3, sequence (P0DMS8 whole entry): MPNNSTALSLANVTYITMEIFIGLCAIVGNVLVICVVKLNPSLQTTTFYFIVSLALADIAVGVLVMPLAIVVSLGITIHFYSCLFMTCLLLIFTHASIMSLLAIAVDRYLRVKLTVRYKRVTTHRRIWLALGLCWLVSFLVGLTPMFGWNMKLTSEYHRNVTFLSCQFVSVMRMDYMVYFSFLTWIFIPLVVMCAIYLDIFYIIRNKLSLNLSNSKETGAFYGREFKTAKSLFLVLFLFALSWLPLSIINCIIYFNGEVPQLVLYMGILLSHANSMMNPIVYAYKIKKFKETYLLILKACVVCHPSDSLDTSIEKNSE

The molecule `Cc1nn(-c2ncccc2Cn2cccn2)cc1CN1CCC2(CC1)OCC(F)(F)c1cc(Cl)sc12.O=C(O)C(O)C(O)C(=O)O` [Example 23, 2-Chloro-4,4-difluoro-1′-[[3-methyl-1-[3-(pyrazol-1-ylmethyl)-2-pyridyl]pyrazol-4-yl]methyl]spiro[5H-thieno[2,3-c]pyran-7,4′-piperidine] (L)-Tartrate] showed a receptor occupancy at 3 mg/kg in [1] of 80%. The Ki (in general, a measure of affinity in units of concentration, obtained from inhibition or displacement) at human ORL1 receptors was 0.00079 µM.
Regarding `O=C(O)C(O)C(O)C(=O)O.OCc1nn(-c2ncccc2F)cc1CN1CCC2(CC1)OCC(F)(F)c1cc(Cl)sc12` [Example 53, [4-[(2-Chloro-4,4-difluoro-spiro[5H-thieno[2,3-c]pyran-7,4′-piperidine]-1′-yl)methyl]-1-(3-fluoro-2-pyridyl)pyrazol-3-yl]methanol (L)-Tartrate], the inhibition constant (Ki) was more than 8.55 µM on 5-HT1D; more than 5 µM at D1 Dopamine; more than 3.98 µM on 5-HT7; more than 5 µM on 5-HT2A; more than 5 µM at Adenosine A3; more than 5 µM on D2 Dopamine. Further, the inhibitory constant (Ki) was more than 5 µM at Muscarinic M3, 0.00045 µM on human ORL1 receptors and more than 5 µM at Ca+2 channel (DHP site). In addition, in [1], the receptor occupancy at 3 mg/kg was 83%.
As to `Cc1nn(-c2ncccc2CO)cc1CN1CCC2(CC1)OCC(F)(F)c1cc(Cl)sc12` [Example 62, [2-[4-[(2-Chloro-4,4-difluoro-spiro[5H-thieno[2,3-c]pyran-7,4′-piperidine]-1′-yl)methyl]-3-methyl-pyrazol-1-yl]-3-pyridyl]methanol], the inhibition constant (Ki) is more than 8.55 µM on 5-HT1D (read-out: Ki 5-HT1D); more than 5 µM at D1 Dopamine (read-out: Ki D1 Dopamine); more than 3.98 µM at 5-HT7 (read-out: Ki 5-HT7); more than 5 µM at 5-HT2A (read-out: Ki 5-HT2A); more than 5 µM on Adenosine A3; more than 5 µM at D2 Dopamine (read-out: Ki D2 Dopamine). Further, the Ki on Muscarinic M3 (read-out: Ki Muscarinic M3) is more than 5 µM; on human ORL1 receptors ([3H]OFQ 0.2 nM, CHO cell membranes, read-out: Ki ORL-1) it was 0.00018 µM; on Ca+2 channel (DHP site), more than 5 µM. For the same molecule, the “in vivo plasma concentration necessary to produce 80 percent RO (EC80 RO)” value in [1] (nociceptin/ORL1 receptors in the CNS) is listed as “approximately 41 nM”. Besides, in [1], the receptor occupancy at 3 mg/kg came out at 104%.
